From patent US10456451B2, “Protease-resistant mutants of stromal cell derived factor-1 in the repair of tissue damage” (Mesoblast International Sàrl, priority 2010, dated 2019)
Where “and” joins values, the source holds several entries; their conditions need not be identical. Equal entries are not always repeated. * marks the point of attachment. MCA = fluorescent 7-methoxycoumarin-3-carboxylic acid residue, COc1ccc2cc(C(=O)*)c(=O)oc2c1; Dpn = quencher lysine-dinitrophenol residue

How the values were obtained:
[1] = system: Jurkat T-lymphocytic cells; experiment: Jurkat T-lymphocyte migration (chemotaxis) assay; format: cell-based; settings: for Jurkat Chemotaxis EC50 / EC50: Jurkat cells, 3 hours migration; for activity in Jurkat cell migration assay / activity of C-terminal variant relative to SDF-1 and SSDF-1: result in words; for activity of C-terminal variant relative to SDF-1 and SSDF-1: Jurkat migration, CXCR4 cAMP and CXCR β-arrestin assays
Protocol: Jurkat cells were labeled with Calcein-AM (1 μM) for 60 minutes at 37° C., washed twice and resuspended in RPMI without phenol red to a final density of 4,000,000 cells/ml. […] Cells were allowed to migrate for 3 hours, and cells in lower wells were washed once with PBS. Fluorescence in lower wells was measured at 485 nm excitation and 535 nm emission wavelengths with a Victor Wallace II plate reader. A standard curve was constructed for each experiment to normalize fluorescence to the number of cells.

CXCR4 [2] = molecular target: T1, CXCR4 (Homo sapiens, UniProt P61073); experiment: CXCR4 cAMP receptor activation assay (CHO-K1 cells expressing CXCR4); format: cell-based; parameters: host or cells: CHO-K1; settings: decrease in cAMP by Gαi activation, forskolin at EC80
Protocol: For the CXCR4 cAMP assay, CHO-K1 cells stably expressing the CXCR4 receptor (DiscoveRx, Fremont, Calif.) were seeded at a density of 10,000 cells/well in a 384-well plate and were allowed to recover overnight. A decrease in cAMP by CXCR4-induced Gαi activation was determined using the DiscoveRx HitHunter cAMP XS+assay following the manufacturer's protocol. […] Chemiluminescence was read with a PerkinElmer ViewLux instrument.

CXCR7 = CXCR7 (Homo sapiens, UniProt P25106); experiment: CXCR7 β-arrestin recruitment assay (PathHunter); format: cell-based
Protocol: (§1) PathHunter β-arrestin assays were performed following the instructions of the manufacturer (DiscoveRx). Briefly, PathHunter cell lines stably expressing both a β-arrestin-Enzyme Acceptor of β-galactosidase fusion and one of the chemokine receptors fused with the ProLink donor peptide of […] were employed. Upon CXCR stimulation, β-arrestin is recruited to the receptor for desensitization, bringing the two fragments (the Enzyme Acceptor and the ProLink) of β-galactosidase together. This generates an active β-galactosidase enzyme that can convert a substrate to a chemiluminescent product. Cells were seeded at a density of 5000 cells/well in a 384-well plate and were allowed to adhere overnight. […] After incubation, chemiluminescent signal was generated through addition of 12.5 μl (50% v/v) of PathHunter Detection reagent cocktail (DiscoveRx) followed by a 1-hour incubation at room temperature. Microplates were read with a PerkinElmer ViewLux instrument.

MMP-2 = molecular target: T2, MMP-2 (Homo sapiens, UniProt P08253); experiment: MMP-2 cleavage of FRET-based N-terminal 8 amino acid peptides; format: biochemical; settings: for amount of peptide cleaved by MMP-2: after 4 hours, n=4; for initial cleavage rate by MMP-2: calculated 60 minutes after addition of MMP-2, n=4
T2 construct: purchased R&D Systems
T2 sequence (P08253 110-660): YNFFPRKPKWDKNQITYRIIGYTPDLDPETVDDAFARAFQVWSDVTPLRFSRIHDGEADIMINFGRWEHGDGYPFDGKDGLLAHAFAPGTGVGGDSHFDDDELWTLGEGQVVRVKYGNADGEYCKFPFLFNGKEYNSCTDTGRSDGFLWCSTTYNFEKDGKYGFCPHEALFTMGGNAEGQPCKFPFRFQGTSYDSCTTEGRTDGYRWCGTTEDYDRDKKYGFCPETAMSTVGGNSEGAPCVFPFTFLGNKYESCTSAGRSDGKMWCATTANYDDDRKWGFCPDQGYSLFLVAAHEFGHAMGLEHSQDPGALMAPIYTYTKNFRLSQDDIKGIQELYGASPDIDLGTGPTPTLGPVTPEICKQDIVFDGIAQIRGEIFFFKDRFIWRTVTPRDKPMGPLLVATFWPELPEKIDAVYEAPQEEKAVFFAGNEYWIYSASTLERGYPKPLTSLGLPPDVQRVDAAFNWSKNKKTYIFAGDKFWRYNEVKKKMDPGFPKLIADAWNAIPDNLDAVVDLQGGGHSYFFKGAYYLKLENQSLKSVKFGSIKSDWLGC
Protocol: All peptides were synthesized with a fluorescent 7-methoxycoumarin-3-carboxylic acid (MCA) residue at the N-terminus and a quencher lysine-dinitrophenol (Dpn) residue at the C-terminus. […] Enzymatic cleavage of these peptides separated MCA from Dpn, resulting in an increased fluorescence. Peptides (10 μM) were then incubated with activated MMP-2 (Table 1), leukocyte elastase (Table 2), or cathepsin G (Table 3) (1.4 nM) in TNCB buffer (50 mM Tris, pH 7.5, with 10 mM calcium chloride, 150 mM sodium chloride, and 0.05% BRIJ 35) or phosphate-buffered saline (PBS) at 21° C. Fluorescence was measured at 340 nm excitation and 405 nm emission wavelengths at different time points with a Victor Wallace II plate reader.
Human recombinant MMP-2 (R&D Systems) was activated for 1 hour with 4-aminophenylmercuric acetate (APMA, 1 mM) at 37° C. 4 μg of Sumo-SSDF-1-RAD or Sumo-SSDF-1(S4V)-RAD was incubated for 1 hour to 48 hours at 21° C. with 50 ng of activated MMP-2 in TCNB buffer (50 mM Tris, pH 7.5, 10 mM CaCl2, 150 mM NaCl, 0.05% Brij-35). Sample loading buffer (Invitrogen) and 2-mercaptoethanol (0.5 M, final concentration) were added, and samples were boiled for 5 minutes and run on a 10% Bis-Tris gel. Proteins used for this experiment were obtained after cation-exchange chromatography, but were neither cleaved by Sumo-protease nor purified by RPC-HPLC.

CXCR4 [3] = molecular target: T1, CXCR4; experiment: CXCR4 β-arrestin recruitment assay (PathHunter); format: cell-based
Protocol: as §1

[4] = system: ischemic hindlimb blood flow; experiment: Hindlimb ischemia model, laser Doppler blood flow; format: in vivo, C57BL/6 mice; settings: without nanofibers
Protocol: All animal protocols were approved by the institutional IACUC and performed in an AAALAC certified facility. Studies were performed blinded and randomized. Hindlimb ischemia was produced in male C57BL/6 mice (305 mice total), 8 to 12 weeks old (Jackson Laboratories and Charles River Laboratories). Mice were anesthetized with isoflurane (2-3% in 100% oxygen) and buprenorphin (0.05 mg/kg). Femoral artery was ligated and excised below the inguinal ligament and above the bifurcation of the popliteal artery. Protein and self-assembling peptide nanofibers were injected in the lower hindlimb after excision of the artery. Peptides were dissolved in isotonic sucrose (10%). Post-operative analgesia was provided with buprenorphin (0.05 mg/kg every 6 to 12 hours for 72 hours). The surgeon was blinded to the treatment groups in all studies performed. The first study included 35 animals total (5 animals per group), which received an intramuscular injection in the lower hindlimb with biotin-labeled nanofibers (biotin-RAD, 0.01% in 1% nanofibers hydrogel). Tissues were harvested at seven different time points and nanofibers were stained with Alexa fluor-labeled streptavidin. The second study included 40 animals (10 per group) with four groups: control without injection, nanofibers only, nanofibers+100 nM SSDF-1-RAD, and nanofibers+100 nM SSDF-1(S4V)-RAD. Laser Doppler blood flow measurements were performed with a Moor LDI2-IR (Moor Instruments) 2, 4, and 6 weeks after surgery. At each time point, five measurements (on average) per animal were made, and blood flow in the ischemic limb was normalized to blood flow in normal limb. The third study included 50 animals with four different dosages of SSDF-1(S4V)-RAD; all groups contained nanofibers. All laser Doppler measurements and histology quantifications were made by an operator blinded to the treatment groups.

[5] = fourth study, 1 mg/kg daily IM for first 7 days
[6] = separate confirming study, same doses and schedule

Chain of CXCR7 (P25106 whole entry, the tested form may be a part): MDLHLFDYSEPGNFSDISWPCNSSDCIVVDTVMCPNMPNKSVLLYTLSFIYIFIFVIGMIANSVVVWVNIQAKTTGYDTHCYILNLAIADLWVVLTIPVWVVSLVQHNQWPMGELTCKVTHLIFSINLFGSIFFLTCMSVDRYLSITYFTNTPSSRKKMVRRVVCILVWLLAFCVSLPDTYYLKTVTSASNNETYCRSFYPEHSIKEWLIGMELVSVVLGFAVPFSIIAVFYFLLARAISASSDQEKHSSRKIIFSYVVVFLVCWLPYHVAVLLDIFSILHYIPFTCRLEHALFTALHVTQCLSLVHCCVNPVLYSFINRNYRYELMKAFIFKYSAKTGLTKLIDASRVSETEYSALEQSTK
T1 sequence (P61073 whole entry): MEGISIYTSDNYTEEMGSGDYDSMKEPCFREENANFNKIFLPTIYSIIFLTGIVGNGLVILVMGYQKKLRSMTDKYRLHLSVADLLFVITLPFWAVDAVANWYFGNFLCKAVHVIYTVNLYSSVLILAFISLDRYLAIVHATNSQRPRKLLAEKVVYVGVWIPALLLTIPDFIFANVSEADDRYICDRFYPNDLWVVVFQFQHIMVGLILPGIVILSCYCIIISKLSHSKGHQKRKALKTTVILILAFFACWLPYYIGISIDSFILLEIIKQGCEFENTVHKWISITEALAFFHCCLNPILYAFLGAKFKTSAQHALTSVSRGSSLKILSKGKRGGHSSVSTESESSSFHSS

Row | Substance | Jurkat Chemotaxis EC50 [1] | activity in Jurkat cell migration assay [1] | EC50 [1] | EC50 (CXCR7) | other results
1 | SSDF-1 (L5W): SDF-1 with Leu→Trp at position 5 and N-terminal serine | Inactive | inactive | – | – | –
2 | SSDF-1 (L5P): SDF-1 with Leu→Pro at position 5 (SEQ ID NO:66) and N-terminal serine | – | – | 120 nM | 225 nM | CXCR4 (cAMP) EC50 (CXCR4 [2]): Inactive
3 | SSDF-1 (L5E): SDF-1 with Leu→Glu at position 5 and N-terminal serine | Inactive | inactive | – | – | –
4 | SSDF-1 (V3G): SDF-1 with Val→Gly at position 3 and N-terminal serine | Inactive | inactive | – | – | –
5 | SSDF-1 (V3D): SDF-1 with Val→Asp at position 3 and N-terminal serine | Inactive | inactive | – | – | –
6 | SSDF-1 (L5H): SDF-1 with Leu→His at position 5 and N-terminal serine | Inactive | inactive | – | – | –
7 | SSDF-1 (V3C): SDF(V3C) (SEQ ID NO:55) with N-terminal serine | – | – | 15 nM | 14 nM | EC50 (CXCR4 [2]): 0.6 nM
8 | SDF-1(S4V)-N-terminal peptide: First 8 amino acids of SDF-1(S4V) (SEQ ID NO:91) with MCA at the N-terminus and quencher Dpn at the C-terminus ({MCA}-KPVVLSYR-Dpn) | – | – | – | – | amount of peptide cleaved by MMP-2 (MMP-2): 1 ± 3 pmol; initial cleavage rate by MMP-2 (MMP-2): 0.1±0.1×10^−10 M s^−1
9 | SSDF-1 (−68K): SDF-1 lacking the C-terminal lysine, with N-terminal serine | – | – | 2.2 nM | – | EC50 ([1]; listed as SSDF-1(−68K)): 1.3 nM; activity of C-terminal variant relative to SDF-1 and SSDF-1 [1]: unchanged
10 | SSDF-1 (S4V): SDF-1(S4V) (SEQ ID NO:65) with a serine residue added at the N-terminus | – | highest potency | 5.4 nM | 37 nM | EC50 (CXCR4 [2]): 20 nM; EC50 (CXCR4 [3]): 28 nM; average blood flow (ratio of ischemic to control limb) ([4]; four weeks, 4 administrations (d0, d1, d3, d5) of 1 mg/kg): 27.1±2.5%; blood flow differences between groups [4, 5]: No significant differences in blood flow; blood flow differences between groups [4, 6]: did not show significant differences between groups; blood flow differences between groups ([4]; third study, 0.1, 0.3, 1 and 3 mg/kg at d0, d1, d3, d5): No significant differences in blood flow
11 | SSDF-1(S4V)γ: SDF-1γ version of SSDF-1(S4V) | – | – | 47 nM | – | –
12 | SSDF-1: SDF-1 with a serine residue added at the N-terminus | – | – | 1.6 nM | – | blood flow differences between groups [4, 5]: No significant differences in blood flow; blood flow differences between groups [4, 6]: did not show significant differences between groups
13 | SSDF-1 (V3H): SDF(V3H) (SEQ ID NO:54) with N-terminal serine | – | – | 6.7 nM | 92 nM | EC50 (CXCR4 [2]): 1 nM
14 | SSDF-1 (L5V): SDF(L5V) (SEQ ID NO:60) with N-terminal serine | – | – | 36 nM | 21 nM | EC50 (CXCR4 [2]): 33 nM
15 | SSDF-1 (L5T): SDF(L5T) (SEQ ID NO:56) with N-terminal serine | – | – | 20 nM | 8.7 nM | EC50 (CXCR4 [2]): 3.6 nM
16 | SSDF-1 (+69S): SSDF-1 with an amino acid residue (serine) added to the C-terminal end | – | – | 12 nM | – | EC50 ([1]; listed as SSDF-1(+69S)): 2 nM; activity of C-terminal variant relative to SDF-1 and SSDF-1 [1]: retains significant activity
17 | SSDF-1 (S6G): SDF(S6G) (SEQ ID NO:62) with N-terminal serine | – | – | 11 nM | 25 nM | EC50 (CXCR4 [2]): 8.5 nM
18 | SSDF-1 (L5K): SDF-1 with Leu→Lys at position 5 and N-terminal serine | Inactive | inactive | – | – | –
19 | SSDF-1(S4V)(−68K): SSDF-1(S4V) lacking the C-terminal lysine | – | – | 10 nM | – | –
20 | SSDF-1 (V3P): SDF-1 with Val→Pro at position 3 and N-terminal serine | Inactive | inactive | – | – | –
21 | SSDF-1(S4V)-RADI: Fusion protein of SSDF-1(S4V) and RAD16-I sequence, six glycine linker (SEQ ID NO:75) | – | – | 18 nM | – | –
22 | SSDF-1 (S6C): SDF(S6C) (SEQ ID NO:61) with N-terminal serine | – | – | 23 nM | 29 nM | EC50 (CXCR4 [2]): 12 nM
23 | KPVSLSYR ({MCA}-KPVSLSYR-Dpn; listed as Homo sapiens) [SDF-1-N-terminal peptide, reference compound] | – | – | – | – | amount of peptide cleaved by MMP-2 (MMP-2): 205 ± 18 pmol; initial cleavage rate by MMP-2 (MMP-2): 2.0±0.1×10^−10 M s^−1
24 | SDF-1: Unmutated SDF-1α, 68 amino acids, SEQ ID NO:52 [reference compound] | – | – | 1.5 nM and 1.8 nM | – | –
25 | SSDF-1 (L5D): SDF-1 with Leu→Asp at position 5 and N-terminal serine | Inactive | inactive | – | – | –
